Measurements taken from US20250333397A1 (REMIX THERAPEUTICS INC., priority 2021, published 2025).
Where two headings read alike, the source gives them in different places.

Assays:
Assay type in all cases: cell-based, human
HTT mRNA = test: RT-qPCR splicing assay, HTT canonical (CJ) and alternative (AJ) junction mRNA; details: Homo sapiens; for AC50: read-out: HTT AJ (AC50, increase in AJ mRNA)
Summary of the method: (§1)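 CJ and AJ junction levels were quantified by RT-qPCR on lysates, with housekeeper ΔCt normalized to DMSO (ΔΔCt) and expressed as RQ = 2^(-ΔΔCt). Before lysis, K562 or A673 cells had 24 h compound exposure at 37 °C. Dosing was 11 points, 3-fold, from 10 uM final, with DMSO at most 0.25%.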

MYB mRNA = test: RT-qPCR splicing assay, MYB canonical (CJ) and alternative (AJ) junction mRNA; details: Homo sapiens; for AC50: read-out: MYB AJ (AC50, increase in AJ mRNA)
Summary of the method: as §1

Target C mRNA = test: RT-qPCR splicing assay panel, Target C canonical junction (CJ) mRNA; details: Homo sapiens
Summary of the method: as §1

SMN2 mRNA = test: RT-qPCR splicing assay panel, SMN2 canonical junction (CJ) mRNA; details: Homo sapiens
Summary of the method: as §1

[1] = 24 h, Table 3A, A673 or K562 cells, 24 h treatment
[2] = 24 h, Table 3A, A673 or K562 cells, 24 h treatment, read-out: HTT CJ (IC50, decrease in CJ mRNA)
[3] = canonical junction (CJ) mRNA, RT-qPCR panel, Table 4A, read-out: HTT, decrease in CJ mRNA levels, IC50
[4] = 24 h, Table 3A, A673 or K562 cells, 24 h treatment, read-out: MYB CJ (IC50, decrease in CJ mRNA)
[5] = canonical junction (CJ) mRNA, RT-qPCR panel, Table 4A, read-out: MYB, decrease in CJ mRNA levels, IC50
[6] = canonical junction (CJ) mRNA, RT-qPCR panel, Table 4A, read-out: Target C, decrease in CJ mRNA levels, IC50
[7] = canonical junction (CJ) mRNA, RT-qPCR panel, Table 4A, read-out: SMN2, decrease in CJ mRNA levels, IC50
[8] = 24 h, Table 3B, A673 or K562 cells, 24 h treatment
[9] = 24 h, Table 3B, A673 or K562 cells, 24 h treatment, read-out: HTT CJ (IC50, decrease in CJ mRNA)
[10] = Table 4B, gene panel, read-out: HTT (IC50, decrease in CJ mRNA levels)
[11] = 24 h, Table 3B, A673 or K562 cells, 24 h treatment, read-out: MYB CJ (IC50, decrease in CJ mRNA)
[12] = Table 4B, gene panel, read-out: MYB (IC50, decrease in CJ mRNA levels)
[13] = Table 4B, gene panel, read-out: Target C (IC50, decrease in CJ mRNA levels)
[14] = Table 4B, gene panel, read-out: SMN2 (IC50, decrease in CJ mRNA levels)

| SMILES | IC50 (HTT mRNA; [2]) [nM] | IC50 (HTT mRNA; [3]) [nM] | IC50 (MYB mRNA; [4]) [nM] | IC50 (MYB mRNA; [5]) [nM] | IC50 (Target C mRNA; [6]) [nM] | IC50 (SMN2 mRNA; [7]) [nM] | IC50 (HTT mRNA; [9]) [nM] | IC50 (HTT mRNA; [10]) [nM] | IC50 (MYB mRNA; [11]) [nM] | IC50 (MYB mRNA; [12]) [nM] | IC50 (Target C mRNA; [13]) [nM] | IC50 (SMN2 mRNA; [14]) [nM] | AC50 (HTT mRNA; [1]) [nM] | AC50 (MYB mRNA; [1]) [nM] | AC50 (HTT mRNA; [8]) [nM] | AC50 (MYB mRNA; [8]) [nM] |
| --- | --- | --- | --- | --- | --- | --- | --- | --- | --- | --- | --- | --- | --- | --- | --- | --- |
| COc1cc(-c2ccc(-c3ccc(N4CC[C@@H](N[C@H]5C[C@@H](F)C5)C4)nn3)c(O)c2)ncn1 [Compound 408, 5-(6-methoxypyrimidin-4-yl)-2-{6-[(3S)-3-{[(1s,3s)-3-fluorocyclobutyl]amino}pyrrolidin-1-yl]pyridazin-3-yl}phenol] | < 100 | < 100 | 100 to 1000 | 100 to 1000 | 100 to 1000 | < 100 | – | – | – | – | – | – | 100 to 1000 | 100 to 1000 | – | – |
| CC(C)(C)N[C@H]1CCN(c2ccc(-c3ccc(-c4cn[nH]c4)cc3O)nn2)C1 [Compound 261] | < 100 | < 100 | 100 to 1000 | 100 to 1000 | < 100 | < 100 | – | – | – | – | – | – | < 100 | 100 to 1000 | – | – |
| Cc1ccc2cc(-c3ccc(N4CCC(NC(C)(C)C)C4)nn3)c(O)cc2n1 (stereo not shown) [Compound 817] | – | – | – | – | – | – | > 10000 | > 10000 | > 10000 | > 10000 | > 10000 | 1000 to 10000 | – | – | > 10000 | > 10000 |
| Cc1cc(-c2ccc(-c3ccc(N4CC[C@H](NC5CCC5)C4)nn3)c(O)c2)cnn1 [Compound 291, 2-{6-[(3S)-3-(cyclobutylamino)pyrrolidin-1-yl]pyridazin-3-yl}-5-(6-methylpyridazin-4-yl)phenol] | 1000 to 10000 | 1000 to 10000 | > 10000 | > 10000 | > 10000 | 1000 to 10000 | – | – | – | – | – | – | > 10000 | > 10000 | – | – |
| COc1cc(-c2ccc(-c3ccc(N4CC[C@H](N(C)C(C)(C)C)C4)nn3)c(O)c2)cnn1 [Compound 337, 2-{6-[(3S)-3-[tert-butyl(methyl)amino]pyrrolidin-1-yl]pyridazin-3-yl}-5-(6-methoxypyridazin-4-yl)phenol] | < 100 | < 100 | < 100 | < 100 | < 100 | < 100 | – | – | – | – | – | – | < 100 | < 100 | – | – |
| Oc1cc(-c2cn[nH]c2)ccc1-c1ccc(N2CC[C@H](NC3CC3)C2)nn1 [Compound 104, 2-{6-[(3S)-3-(cyclopropylamino)pyrrolidin-1-yl]pyridazin-3-yl}-5-(1H-pyrazol-4-yl)phenol; ethane] | < 100 | < 100 | 100 to 1000 | 100 to 1000 | 100 to 1000 | < 100 | – | – | – | – | – | – | < 100 | 100 to 1000 | – | – |

Further lines, with some results ahead:

| IC50 (HTT mRNA; [2]) [nM] | IC50 (HTT mRNA; [3]) [nM] | IC50 (MYB mRNA; [4]) [nM] | IC50 (MYB mRNA; [5]) [nM] | IC50 (Target C mRNA; [6]) [nM] | IC50 (SMN2 mRNA; [7]) [nM] | IC50 (HTT mRNA; [9]) [nM] | IC50 (HTT mRNA; [10]) [nM] | IC50 (MYB mRNA; [11]) [nM] | IC50 (MYB mRNA; [12]) [nM] | IC50 (Target C mRNA; [13]) [nM] | IC50 (SMN2 mRNA; [14]) [nM] | SMILES | AC50 (HTT mRNA; [1]) [nM] | AC50 (MYB mRNA; [1]) [nM] | AC50 (HTT mRNA; [8]) [nM] | AC50 (MYB mRNA; [8]) [nM] |
| --- | --- | --- | --- | --- | --- | --- | --- | --- | --- | --- | --- | --- | --- | --- | --- | --- |
| > 10000 | > 10000 | > 10000 | > 10000 | > 10000 | 1000 to 10000 | – | – | – | – | – | – | Oc1cc(-c2cnc(C(F)(F)F)s2)c(F)cc1-c1ccc(N2CCC(NC3CCC3)C2)nn1 (stereo not shown) [Compound 390] | > 10000 | > 10000 | – | – |
| 100 to 1000 | 100 to 1000 | 100 to 1000 | 100 to 1000 | 100 to 1000 | < 100 | – | – | – | – | – | – | CCN(C1CCC1)[C@@H]1CCN(c2ccc(-c3ccc(-c4cnnc(OC)c4)cc3O)nn2)C1 [Compound 290, 2-{6-[(3R)-3-[cyclobutyl(ethyl)amino]pyrrolidin-1-yl]pyridazin-3-yl}-5-(6-methoxypyridazin-4-yl)phenol] | 100 to 1000 | 100 to 1000 | – | – |
| < 100 | < 100 | 100 to 1000 | 100 to 1000 | 100 to 1000 | < 100 | – | – | – | – | – | – | Cc1ncc(-c2ccc(-c3ccc(N4CC[C@@](C)(NC5CCC5)C4)nn3)c(O)c2)s1 [Compound 356] | < 100 | 100 to 1000 | – | – |
| < 100 | < 100 | < 100 | < 100 | < 100 | < 100 | – | – | – | – | – | – | CC(C)(C)N[C@@H]1CCN(c2ccc(-c3ccc(-c4cn[nH]c4)cc3O)nn2)C1 [Compound 262] | < 100 | < 100 | – | – |
| – | – | – | – | – | – | 100 to 1000 | 100 to 1000 | 1000 to 10000 | 1000 to 10000 | 1000 to 10000 | 100 to 1000 | Cc1nc2cc(O)c(-c3ccc(N4CCC(NC(C)(C)C(C)C)C4)nn3)cc2o1 (stereo not shown) [Compound 862] | – | – | 100 to 1000 | 1000 to 10000 |
